From patent US5641760A, “Method of treating candida infection” (Pence, Inc., priority 1994, dated 1997)

How the values were obtained:
[1] = tested on: Candida albicans strain #40 fimbriae (enriched fimbriae EF, 66 kDa fimbrial subunit/adhesin protein); test: Inhibition of fimbriae binding to immobilized βGalNAc(1-4)βGal-BSA conjugate; settings: plates coated with 10 μg/ml conjugate; read-out: Half-maximal inhibition of fimbriae binding to βGalNAc(1-4)βGal-BSA conjugate
Procedure: Further experiments to determine the specificity of fimbrial binding to GSLs were carried out using a plate binding assay, as described above, but immobilizing on the plates a βGalNAc(1-4)βGal-BSA conjugate, synthesized from βGalNAc(1-4)βGal-O(CH2)8 COOCH3 (Sabesan and Lemieux), as described in Part B, above. The coupling ratio of disaccharide: BSA was 12:1. The protocol utilized for this assay was similar to that employed for the assessment of C. albicans fimbriae binding to GSLs except that the plates were coated with 100 μl/well of a 10 μg/ml solution of synthetic βGalNAc(1-4)βGal-BSA conjugate in 0.01M carbonate buffer, pH 9.5.
Using this assay, it was first determined that fimbriae bind to the βGalNAc(1-4)βGal-BSA conjugate in a saturable, concentration-dependent manner. FIGS. 12A and 12B show the results of experiments in which compounds were tested for ability to inhibit binding of fimbriae to the βGalNAc(1-4)βGal-BSA conjugate. The protocol used in this assay was similar to the one used in the GSL inhibition assay described above, except that the plates were coated with 100 μl/well of a 10 μg/ml solution of synthetic βGalNAc(1-4)βGal-BSA conjugate in 0.01M carbonate buffer, pH 9.5. As depicted in FIG. 12A, βGalNAc(1-4)βGal-methylester ("GalNAcGal") was able to inhibit binding to the GalNAcGal-BSA conjugate in a concentration dependent manner. […]

[2] = tested on: Candida albicans fimbriae (binding to human BECs); test: Inhibition of fimbriae binding to human buccal epithelial cells (BECs); type: cell-based; settings: fimbriae 50 μg preincubated with competitor 1 h at 37° C.; 2.0×10^5 BECs; competitor concentration not stated
Procedure: The percent inhibition is the inhibition of binding in the presence of the competing antigens with respect to binding observed in the absence of any competitors.
The fimbrial adherence assay was performed using a Manifold filtration apparatus equipped with individual vacuum stopcocks (Model FH 225V, Hoefer Scientific Instruments). Polycarbonate filters, 12 μm pore size (Nucleopore Costar Corp.), were pre-incubated overnight at 4° C. with 50 ml of PBS pH 7.2, containing 0.45% (v/v) Tween 20. The pretreated filters were placed into each chamber and washed with 2.5 ml of PBS. 1 ml containing 2.0×10^5 BECs in PBS was added to each chamber. Enriched fimbriae (100 μl/chamber, ranging from 0 to 80 μg fimbriae protein/ml) in PBS containing 0.05% (v/v) Tween-20 was added to each chamber and incubated with the BECs for 1.5 hours at room temperature. Unbound fimbriae were removed with washes of 2.5 ml of PBS. Mouse anti-C. albicans fimbriae monoclonal antibody (ascites fluid diluted 1:3000 with PBS) was added to the BECs (1.2 ml/chamber) and incubated for 1.5 hour at room temperature. BECs were washed five times with 2.5 ml of PBS. Goat anti-mouse IgG(H+L)-peroxidase conjugates (Jackson Laboratories) diluted 1:5000 with PBS was added (1.0 ml/chamber) and incubated for another hour at room temperature. The cells were then washed seven times with 2.5 ml/chamber of PBS. The polycarbonate filters containing BECs were removed from the filtration manifold and placed into glass scintillation vials. The horseradish peroxidase substrate solution (ABTS) was added to each vial (1 ml/vial) and incubated for 30 min at room temperature on a shaker at 100 rpm. The reaction was stopped by the addition of 4 mM sodium azide (200 μl/vial). The substrate solution was pipetted into Eppendorf tubes and centrifuged at 5,000 g for 3 minutes. Aliquots of the supernatants were pipetted into microtiter wells (200 μl/well) and the resulting absorbance at 405 nm was recorded with a Titertek Multiskan Plus microplate recorder. […]

[3] = tested on: Candida albicans (binding to human buccal epithelial cells); test: Inhibition of C. albicans whole cell binding to human BECs; type: cell-based; settings: fungal cells exposed to increasing concentrations, then mixed with BECs
Procedure: Further experiments were carried out to determine the ability of βGalNAc(1-4)βGal-methylester ("GalNAcGal") to inhibit binding between whole BECs and Candida albicans.
C. albicans cells were radiolabelled as previously described by McEachran and Irvin (35, 48), incorporated herein by reference. A loopful of culture from Sabouraud-dextrose agar (GIBCO) was used as a source of inoculum for 10 ml of M9 medium supplemented with 0.4% (w/v) glucose. Cultures were incubated at 25° C. for 12 hours with 150 rpm agitation in G25 Gyrotory shaker (New Brunswick Scientific Co.). Cultures were supplemented with 5 μCi/ml of [^35 S]-L-methionine (New England Nuclear, Boston, Mass.) after 10 hours of incubation. […] The amount of [^35 S]-L-methionine incorporated by the C. albicans cells was determined by filtering 1.0 ml of a 1:100 dilution of washed C. albicans culture through a 0.2 μm polycarbonate filter (Nucleopore Corp., Pleasanton, Calif.) in triplicate, washing with 15 ml of PBS, and placing the filter in scintillation vials with 5.0 ml of Aquasol (New England Nuclear, Massachusettes). The counts per minute were determined with a Beckman LS-150 liquid-scintillation counter. […]
In a similar manner, experiments were carried out testing the ability of βGalNac(1-4)βGal to inhibit binding of C. albicans to BECs. […] Total cell counts were determined using a hemocytometer. […]

[4] = tested on: Candida albicans strain #40 fimbriae (enriched fimbriae EF, 66 kDa fimbrial subunit/adhesin protein); test: Thin-layer chromatography plate binding assay of fimbriae to glycosphingolipids; settings: 10 μg GSL per spot; 100 μg EF/ml; detected with mAb Fm16
Procedure: Bound fimbriae on the TLC plates were visualized with a Protein G affinity-purified anti-C. albicans fimbriae monoclonal antibody, Fm16, obtained from ascites tumor in Balb/c mice as described below and a goat anti-mouse IgG alkaline phosphatase. […] (Lane 2).
The thin-layer chromatography (TLC) plate binding assay was performed as described by Baker et al. (1) with minor modifications. Aluminum-backed silica gel Si60 high performance TLC plates (Merck Kieselgel Si60, no fluorescence indicator, E. Merck, Darmstadt, Germany) were cut to produce 8×2.5 cm plates which were chromatographed with 100% methanol to the top of the plate to remove impurities and the plates were air dried. Glycosphingolipids (GSLs) (10 μg of each GSL) were loaded 1.0 cm above the base of the plate. The following glycosphingolipids purchased from Sigma Co. (St. Louis, Mo.) were used: mono-sialoganglioside (M-GM1), asialoganglioside GM1 (asialo-GM1), asialoganglioside GM2 (asialo-GM2), lactosylcerebroside (LCS), ceramide trihexoside (CTH). GSLs were separated on the TLC plates in chloroform-methanol-water (65:35:8, v/v/v) and air dried. One set of plates was sprayed with 10% sulphuric acid in ethanol and heated at 100°-150° C. for 5-10 min to char the GSLs for visual detection, and the other set was used for the fimbrial binding assay. The four corners of the plate were bent to 90° and the remainder of the assay was done with the TLC plates inverted in all solutions and at room temperature in an incubator shaker (model G25 Gyroshaker, New Brunswick Scientific, New Jersey, U.S.A.) at 20 rpm agitation. The TLC plate was blocked with 50 mM tris-hydroxy-methyl aminomethane pH 7.5 containing 150 mM NaCl (TBS), 0.25% (w/v) gelatin, 3% (w/v) BSA, 5 mM EDTA and 0.05% (v/v) Nonidet P40 in a glass petri dish for 2 hr at room temperature. The blocking solution was aspirated and 10 ml of EF (100 μg EF/ml in 100 mM TBS, pH 7.5) was then added. The fimbriae were allowed to bind to GSLs for 2 hours at room temperature. The plates were gently washed (2×5 min) with 10 ml of 100 mM TBS containing 0.1% (v/v) Tween 20 (TBST). The murine anti-EF monoclonal antibody, Fm16, was diluted 1:200 with TBST and 10 ml was added to the TLC plates. The solution was incubated for 1 hour at room temperature. Unbound antibodies were removed by washing the plates with 10 ml of TBST (2×5 min). The plate was then incubated with 10 ml of goat anti-mouse immunoglobulin G alkaline phosphatase conjugate (Jackson Laboratories) diluted 1:5,000 with TBST for 1 hour at room temperature. The plates were washed (2×5 min.) with 10 ml of TBST. The alkaline phosphatase activity was localized with Nitro Blue Tetrazolium chloride (NBT) and 5-bromo-4-chloro-3-indolyl phosphate (BCIP) dissolved in 100 mM Tris buffer, pH 9.5 containing 100 mM NaCl and 5 mM MgCl2. Color development was quenched by rinsing the TLC plate with deionized water and submerging the plate into a 150 mM EDTA solution pH 8.0 for 3-5 min. The plates were air dried, stored in plastic in the dark until they were photographed.

Compound	IC50 [1]	Inhibition of C. albicans fimbriae binding to BECs [2]	Inhibition of binding between whole BECs and Candida albicans [3]	Binding of C. albicans fimbriae to glycosphingolipid on TLC plate [4]
COC(=O)CCCCCCCCO[C@@H]1O[C@H](CO)[C@H](O[C@@H]2O[C@H](CO)[C@H](O)[C@H](O)[C@H]2NC(C)=O)[C@H](O)[C@H]1O [βGalNAc(1-4)βGal-methylester]	8.2 µM	70%	inhibited the fungal cell-BEC interaction in a concentration dependent manner	–
gangliotriosylceramide: βGalNAc(1-4)βGal(1-4)βGlc(1-1)Cer [asialo-GM2]	–	–	–	bind specifically
lactosyl cerebroside [LCS]	–	–	–	failed to bind
mono-sialoganglioside [GM1]	–	–	–	failed to bind
